# Results published in patent EP0799834A1, “Modified nucleotides” (priority 1996, dated 1997).
# Assays:
# Type in all cases: biochemical
# [1] = target: T1, M-MuLV RT (Moloney murine leukemia virus, UniProt P03355); assay: Chain elongation: addition of modified nucleotide to primer by reverse transcriptase (gel autoradiography); set-up: key: +: slow addition of modified nucleotide to the primer; ++: good addition of modified nucleotide to the primer; -: no addition of modified nucleotide to the primer; conditions: M-MuLV RT 9 units; modified nucleotide 100 µM; dATP, dGTP, dCTP 15.0 µM each; 37°C
# T1 construct: M-MuLV RT
# Procedure: (§1) The triposphates of the modified nucleotides are synthesized as described by Kovács & Ötvös (Tetrahedron Lett. (1988), 29, […]) • 5' P^32-[…]-OH SEQ ID NO:1 • 3' HO-[…]-OH SEQ ID NP:2
# (§2) A solution of template (3.0 pmol of SEQ ID NO:2) and radioactive primer (0.8 pmol of SEQ ID NO:1) in 72 µl buffer (20 mM Tris-HCl, pH 7.5; 6 mM MgCl2; 40 mM KCl; 0.5 mM DTT) are heated to 80°C and allowed to cool down to 25°C within one hour. To this solution polymerase (see table 1) is added. Aliquots of thereof are mixed with 4 µl of a solution comprising dATP, dGTP, dCTP and the modified nucleotide (see table 1), resulting in a final concentration of dATP, dGTP and dCTP as provided in table 1 and a final concentration of the modified nucleotide of 100 µM. The solutions are incubated at 37°C and the elongation reaction is stopped by addition of 5 µl of a solution of formamide comprising 5 mM EDTA (pH 8.0).
# (§3) 3-5 µl of these solutions are subjected to a polyacrylamide gel (19 % acrylamide, 7 M urea). After electrophoresis the gel is transferred to a filter paper, dried and analyzed using autoradiography (see table 2).
# [2] = tested on: AMV RT; assay: as above; set-up: key: +: slow addition of modified nucleotide to the primer; ++: good addition of modified nucleotide to the primer; -: no addition of modified nucleotide to the primer; conditions: AMV RT 2.0 units; modified nucleotide 100 µM; dATP, dGTP, dCTP 0.5 µM each; 37°C
# Procedure: as §1, §2, §3
# [3] = target: T7 sequenase version 2 (Escherichia phage T7, UniProt P00581, DEL118-145); assay: Chain elongation: addition of modified nucleotide to primer by polymerase (gel autoradiography); set-up: key: +: slow addition of modified nucleotide to the primer; ++: good addition of modified nucleotide to the primer; -: no addition of modified nucleotide to the primer; conditions: T7 sequenase version 2 0.13 units; modified nucleotide 100 µM; dATP, dGTP, dCTP 2.5 µM each; 37°C
# Procedure: as §1, §2, §3
# [4] = target: T2, Klenow (Escherichia coli, UniProt P00582); assay: as above; set-up: key: +: slow addition of modified nucleotide to the primer; ++: good addition of modified nucleotide to the primer; -: no addition of modified nucleotide to the primer; conditions: Klenow 1.5 units; modified nucleotide 100 µM; dATP, dGTP, dCTP 0.5 µM each; 37°C
# T2 construct: Klenow
# Procedure: as §1, §2, §3
# [5] = target: T3, HIV-1RT (Human immunodeficiency virus type 1 group M subtype B, UniProt P04585); assay: Chain elongation: addition of modified nucleotide to primer by reverse transcriptase (gel autoradiography); set-up: key to addition of modified nucleotide to the primer: +: slow addition of modified nucleotide to the primer; ++: good addition of modified nucleotide to the primer; -: no addition of modified nucleotide to the primer; conditions: HIV-1RT 0.13 units; modified nucleotide 100 µM; dATP, dGTP, dCTP 1.0 µM each; 37°C
# T3 construct: HIV-1RT
# Procedure: as §1, §2, §3
# T2 sequence (P00582 324-928): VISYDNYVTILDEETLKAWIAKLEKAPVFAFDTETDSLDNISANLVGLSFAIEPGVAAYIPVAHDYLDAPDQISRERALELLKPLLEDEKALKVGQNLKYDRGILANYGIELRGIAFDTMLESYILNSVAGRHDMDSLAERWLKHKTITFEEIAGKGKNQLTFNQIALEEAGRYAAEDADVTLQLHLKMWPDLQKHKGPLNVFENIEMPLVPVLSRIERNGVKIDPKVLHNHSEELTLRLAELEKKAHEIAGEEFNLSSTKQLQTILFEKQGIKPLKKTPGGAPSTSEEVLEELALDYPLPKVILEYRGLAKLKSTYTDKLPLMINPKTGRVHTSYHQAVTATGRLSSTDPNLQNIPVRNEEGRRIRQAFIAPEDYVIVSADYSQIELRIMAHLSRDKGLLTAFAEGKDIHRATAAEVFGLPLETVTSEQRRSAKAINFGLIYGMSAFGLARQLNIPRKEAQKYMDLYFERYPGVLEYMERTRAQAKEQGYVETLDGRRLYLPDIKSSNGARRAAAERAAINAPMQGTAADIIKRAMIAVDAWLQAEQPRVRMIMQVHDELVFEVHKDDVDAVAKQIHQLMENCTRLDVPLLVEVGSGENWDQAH
# Chain of T7 sequenase version 2 (P00581 other isoform, or with tags, fused parts or gaps DEL118-145): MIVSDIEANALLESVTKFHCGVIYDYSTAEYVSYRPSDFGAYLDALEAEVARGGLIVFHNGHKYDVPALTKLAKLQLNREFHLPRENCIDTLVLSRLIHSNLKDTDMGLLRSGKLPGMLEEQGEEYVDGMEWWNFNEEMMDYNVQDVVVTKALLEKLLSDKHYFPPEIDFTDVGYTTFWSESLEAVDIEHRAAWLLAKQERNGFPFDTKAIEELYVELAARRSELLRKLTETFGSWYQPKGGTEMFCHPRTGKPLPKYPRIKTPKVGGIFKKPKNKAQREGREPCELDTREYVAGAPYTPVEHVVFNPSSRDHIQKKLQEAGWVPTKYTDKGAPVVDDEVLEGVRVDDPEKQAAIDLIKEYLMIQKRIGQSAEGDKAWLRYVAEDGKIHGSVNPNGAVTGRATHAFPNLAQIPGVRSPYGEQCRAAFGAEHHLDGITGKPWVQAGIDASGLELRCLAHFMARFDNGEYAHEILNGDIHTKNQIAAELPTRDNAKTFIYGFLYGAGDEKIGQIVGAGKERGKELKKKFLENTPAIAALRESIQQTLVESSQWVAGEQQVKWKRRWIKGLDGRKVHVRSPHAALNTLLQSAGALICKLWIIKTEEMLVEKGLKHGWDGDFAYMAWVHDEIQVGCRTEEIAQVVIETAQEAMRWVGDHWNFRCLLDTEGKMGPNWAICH
# Chain of T7 sequenase version 2 (P0AA25 2-109, stated change not applied, further chain): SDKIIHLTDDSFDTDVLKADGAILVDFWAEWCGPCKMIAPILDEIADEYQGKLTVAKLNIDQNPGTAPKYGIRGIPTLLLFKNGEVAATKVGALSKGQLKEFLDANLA
SMILES,addition of modified nucleotide to the primer [1],addition of modified nucleotide to the primer [2],addition of modified nucleotide to the primer [3],addition of modified nucleotide to the primer [4],addition of modified nucleotide to the primer [5],elongation after addition of modified nucleotide [5]
Cc1cn([C@H]2C[C@H](O)[C@](COP(=O)(O)OP(=O)(O)OP(=O)(O)O)(C(=O)c3ccccc3)O2)c(=O)[nH]c1=O [R^1=C6H5],-,++,-,-,++,
Cc1cn([C@H]2C[C@H](O)[C@](COP(=O)(O)OP(=O)(O)OP(=O)(O)O)(C(=O)C(C)(C)C)O2)c(=O)[nH]c1=O [R^1=t-butyl],-,-,-,-,-,
CCC(=O)[C@]1(COP(=O)(O)OP(=O)(O)OP(=O)(O)O)O[C@@H](n2cc(C)c(=O)[nH]c2=O)C[C@@H]1O [R^1=CH3CH2],++,++,++,+,++,
CC(=O)[C@]1(COP(=O)(O)OP(=O)(O)OP(=O)(O)O)O[C@@H](n2cc(C)c(=O)[nH]c2=O)C[C@@H]1O [R^1=CH3],++,++,++,++,++,elongation
